How the values were obtained:
Assay type in all cases: cell-based
[1] = test system: human fibrosarcoma cells HT-1080; experiment: Anti-fibrosis activity test: inhibition of proliferation of human fibrosarcoma cells HT-1080 (CCK-8); settings: Homo sapiens, HT-1080, 48 h
Method in brief: (§1)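 Cells seeded at 2×10^4 cells/mL, adhered 24 h, then exposed to compound concentrations in triplicate for 48 h at 37° C, 5% CO2. CCK-8 added for 2 h, absorbance at 450 nm; inhibition = (1−Ai/Ao)×100% versus blank control, IC50 calculated.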

[2] = test system: human embryonic lung fibroblast IMR-90; experiment: Anti-fibrosis activity test: inhibition of proliferation of human embryonic lung fibroblast IMR-90 (CCK-8)
Method in brief: as §1

[3] = test system: human hepatic stellate cells LX-2; experiment: Anti-fibrosis activity test: inhibition of proliferation of human hepatic stellate cells LX-2 (CCK-8); settings: Homo sapiens, 48 h
Method in brief: as §1

[4] = test system: cardiac fibroblast RAT-iCell-C002; experiment: Anti-fibrosis activity test: inhibition of proliferation of cardiac fibroblast RAT-iCell-C002 (CCK-8); settings: Cardiac fibroblast, 48 h
Method in brief: as §1

NF-κB = experiment: Immunological activity test: inhibition of NF-κB activity; settings: initial concentration of 30 μM; a/b isomers given as first/second symbol; read-out: IC50 (μM), inhibitory activity against NF-κB
Method in brief: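 IC50 values come from further analysis of the data after an initial test at a single 30 μM concentration. Parthenolide served as the reference inhibitor.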

[5] = test system: human lung fibroblasts HFL1; experiment: Anti-fibrosis activity test: inhibition of proliferation of human lung fibroblasts HFL1 (CCK-8); settings: Homo sapiens, HFL1, 48 h
Method in brief: as §1

[6] = test system: mouse macrophages (RAW264.7); experiment: Lipopolysaccharide-induced NO secretion in macrophages (Griess); settings: Mus musculus, RAW264.7, 24 h, RAW264.7, LPS 1 μg/ml, a/b isomers given as first/second symbol, read-out: IC50 (μM), inhibition of lipopolysaccharide-induced NO secretion in macrophages
Method in brief: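 RAW264.7 macrophages in DMEM with 10% FBS received test samples at several concentrations and were stimulated with 1 μg/ml LPS for 24 h. NO in the supernatant was measured with the Griess reagent at 548 nm, […].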

[7] = test system: human dermal fibroblasts CCC-ESF-1; experiment: Anti-fibrosis activity test: inhibition of proliferation of human dermal fibroblasts CCC-ESF-1 (CCK-8); settings: Fibroblast
Method in brief: as §1

BHK-21 cells = experiment: Anti-fibrosis activity test: inhibition of BHK-21 cell proliferation (CCK-8); settings: Mesocricetus auratus, BHK-21, 48 h
Method in brief: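 Each concentration was tested in triplicate on adhered BHK-21 cells for 48 h, with pirfenidone as reference. A 2 h CCK-8 incubation preceded absorbance reading at 450 nm, and IC50 was obtained from percent inhibition versus blank.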

[8] = human fibrosarcoma cells HT-1080, CCK-8, 48 hours
[9] = human embryonic lung fibroblast IMR-90, CCK-8, 48 hours
[10] = human hepatic stellate cells LX-2, CCK-8, 48 hours
[11] = cardiac fibroblast RAT-iCell-C002, CCK-8, 48 hours
[12] = human lung fibroblasts HFL1, CCK-8, 48 hours
[13] = human dermal fibroblasts CCC-ESF-1, CCK-8, 48 hours
[14] = CCK-8, 48 hours after administration
[15] = Homo sapiens, IMR-90 cells, 48 h, CCK-8
[16] = Homo sapiens, CCC-ESF-1 cells, 48 h, CCK-8

| Compound | IC50 [1, 8] [mM] | IC50 [2, 9] [mM] | IC50 [3, 10] [mM] | IC50 [4, 11] [mM] | IC50 (NF-κB) [µM] | IC50 [5, 12] [mM] | IC50 [6] [µM] | IC50 [7, 13] [mM] | IC50 (BHK-21 cells; [14]) [mM] | IC50 ([1]; HT-1080 cells, 48 h, CCK-8) [mM] | IC50 [2, 15] [mM] | IC50 ([3]; LX-2, 48 h, LX-2 cells, CCK-8) [mM] | IC50 ([4]; RAT-iCell-C002 cells, CCK-8) [mM] | IC50 ([5]; HFL1 cells, 48 h, CCK-8) [mM] | IC50 [7, 16] [mM] | IC50 (BHK-21 cells; 48 h, CCK-8) [mM] |
| --- | --- | --- | --- | --- | --- | --- | --- | --- | --- | --- | --- | --- | --- | --- | --- | --- |
| O=C1c2c(n(CCN3CCOCC3)c3ccccc3c2=O)-c2cccn21 [Compound 662a, 4-(2-Morpholinoethyl)-9H-pyrrolizino[1,2-b]quinoline-9,10(4H)-dione] | 0.05 to 5 | 0.05 to 5 | 0.05 to 5 | 0.05 to 5 | 0.1 to 1 | 0.05 to 5 | 1 to 10 | 0.05 to 5 | 0.05 to 5 |  |  |  |  |  |  |  |
| O=C1c2c(nc3ccccc3c2OCCN2CCOCC2)-c2cccn21 [Compound 662b, 9-(2-morpholinoethoxy)-10H-pyrrolizino[1,2-b]quinolin-10-one] | 0.05 to 5 | 0.05 to 5 | 0.05 to 5 | 0.05 to 5 | 1 to 10 | 0.05 to 5 | 1 to 10 | 0.05 to 5 | 0.05 to 5 |  |  |  |  |  |  |  |
| O=C1c2c(n(CCCN3CCOCC3)c3ccccc3c2=O)-c2cccn21 [Compound 663a, 4-(3-Morpholinopropyl)-9H-pyrrolizino[1,2-b]quinoline-9,10(4H)-dione] | 0.05 to 5 | 0.05 to 5 | 0.05 to 5 | 0.05 to 5 | 1 to 10 | 0.05 to 5 | 0.1 to 1 | 0.05 to 5 | < 0.05 |  |  |  |  |  |  |  |
| O=C1c2c(nc3ccccc3c2OCCCN2CCOCC2)-c2cccn21 [Compound 663b, 9-(3-morpholinopropoxy)-10H-pyrrolizino[1,2-b]quinolin-10-one] | 0.05 to 5 | 0.05 to 5 | 0.05 to 5 | 0.05 to 5 | 1 to 10 | 0.05 to 5 | 0.1 to 1 | 0.05 to 5 | 0.05 to 5 |  |  |  |  |  |  |  |
| O=C1c2c(n(CCCCN3CCOCC3)c3ccccc3c2=O)-c2cccn21 [Compound 664a, 4-(4-Morpholinobutyl)-9H-pyrrolizino[1,2-b]quinoline-9,10(4H)-dione] | 0.05 to 5 | 0.05 to 5 | 0.05 to 5 | 0.05 to 5 | 1 to 10 | 0.05 to 5 | 0.1 to 1 | 0.05 to 5 | 0.05 to 5 |  |  |  |  |  |  |  |
| O=C1c2c(nc3ccccc3c2OCCCCN2CCOCC2)-c2cccn21 [Compound 664b, 9-(4-morpholinobutoxy)-10H-pyrrolizino[1,2-b]quinolin-10-one] | 0.05 to 5 | 0.05 to 5 | 0.05 to 5 | 0.05 to 5 | 1 to 10 | 0.05 to 5 | 10 to 50 | 0.05 to 5 | 0.05 to 5 |  |  |  |  |  |  |  |
| O=C1c2c(n(CCN3CCCCC3)c3ccccc3c2=O)-c2cccn21 [Compound 665a, 4-(2-(Piperidin-1-yl)ethyl)-9H-pyrrolizino[1,2-b]quinoline-9,10(4H)-dione] |  |  |  |  | 0.1 to 1 |  | 1 to 10 |  |  | 0.05 to 5 | 0.05 to 5 | < 0.05 | 0.05 to 5 | 0.05 to 5 | 0.05 to 5 | 0.05 to 5 |
| O=C1c2c(nc3ccccc3c2OCCN2CCCCC2)-c2cccn21 [Compound 665b, 9-(2-(piperidin-1-yl)ethoxy)-10H-pyrrolizino[1,2-b]quinolin-10-one] |  |  |  |  | 1 to 10 |  | 1 to 10 |  |  | 0.05 to 5 | 0.05 to 5 | 0.05 to 5 | 0.05 to 5 | 0.05 to 5 | 0.05 to 5 | 0.05 to 5 |
| O=C1c2c(n(CCCN3CCCCC3)c3ccccc3c2=O)-c2cccn21 [Compound 666a, 4-(3-(Piperidin-1-yl)propyl)-9H-pyrrolizino[1,2-b]quinoline-9,10(4H)-dione] |  |  |  |  | 1 to 10 |  | 1 to 10 |  |  | 0.05 to 5 | 0.05 to 5 | 0.05 to 5 | 0.05 to 5 | 0.05 to 5 | 0.05 to 5 | 0.05 to 5 |
| O=C1c2c(nc3ccccc3c2OCCCN2CCCCC2)-c2cccn21 [Compound 666b, 9-(3-(piperidin-1-yl)propoxy)-10H-pyrrolizino[1,2-b]quinolin-10-one] |  |  |  |  | 1 to 10 |  | 1 to 10 |  |  | 0.05 to 5 | 0.05 to 5 | 0.05 to 5 | 0.05 to 5 | 0.05 to 5 | 0.05 to 5 | 0.05 to 5 |
| O=C1c2c(n(CCCCN3CCCCC3)c3ccccc3c2=O)-c2cccn21 [Compound 667a, 4-(4-(Piperidin-1-yl)butyl)-9H-pyrrolizino[1,2-b]quinoline-9,10(4H)-dione] |  |  |  |  | 1 to 10 |  | 1 to 10 |  |  | 0.05 to 5 | 0.05 to 5 | 0.05 to 5 | 0.05 to 5 | 0.05 to 5 | 0.05 to 5 | 0.05 to 5 |
| O=C1c2c(nc3ccccc3c2OCCCCN2CCCCC2)-c2cccn21 [Compound 667b, 9-(4-(piperidin-1-yl)butoxy)-10H-pyrrolizino[1,2-b]quinolin-10-one] |  |  |  |  | 1 to 10 |  | 1 to 10 |  |  | 0.05 to 5 | 0.05 to 5 | 0.05 to 5 | 0.05 to 5 | 0.05 to 5 | 0.05 to 5 | 0.05 to 5 |
| O=C1c2c(n(Cc3ccccc3[N+](=O)[O-])c3ccccc3c2=O)-c2cccn21 [Compound 668a, 4-(2-Nitrobenzyl)-9H-pyrrolizino[1,2-b]quinoline-9,10(4H)-dione] |  |  |  |  | 0.1 to 1 |  | 1 to 10 |  |  | 0.05 to 5 | 0.05 to 5 | 0.05 to 5 | 0.05 to 5 | 0.05 to 5 | 0.05 to 5 | 0.05 to 5 |
